# Activity calls are given as the source filed them. The rule behind the calls is not given here.
# What was measured:
# [1] = system: Hepatitis B virus; assay: Antiviral activity against HBV infected human HePAD38 cells assessed as reduction in intracellular core protein content at 0.003 uM incubated for 6 days by Western blot analysis; format: functional, organism-based; details: time 6.0 day
# [2] = Water solubility of compound in phosphate buffer at pH 7.4 by HPLC analysis; format: physicochemical
# [3] = Metabolic stability in human liver microsome assessed as half life preincubated for 10 mins followed by NADPH addition and measured after 60 mins by LC-MS/MS analysis; format: ADME; details: liver microsomes, time 70 min
# [4] = target: CYP3A (Homo sapiens, UniProt P08684+P20815+P24462+Q9HB55); assay: Inhibition of CYP3A (unknown origin) at 10 uM using midazolam as substrate incubated for 10 mins in presence of NADPH by LC-MS/MS analysis relative to control; format: ADME, protein assay; details: probe midazolam
# [5] = target: CYP2C9 (Homo sapiens, UniProt P11712); assay: Inhibition of CYP2C9 (unknown origin) at 10 uM using diclofenac as substrate incubated for 10 mins in presence of NADPH by LC-MS/MS analysis relative to control; format: ADME; details: probe diclofenac
# [6] = Selectivity index, ratio of CC50 for cytotoxicity against human HePAD38 cells assessed as reduction in cell viability to EC50 for antiviral activity against HBV infected human HePAD38 cells assessed as reduction of HBV DNA level; format: toxicity, cell-based; details: read-out: Ratio CC50/EC50
# [7] = target: T1, CYP1A2 (Homo sapiens, UniProt P05177); assay: Inhibition of CYP1A2 (unknown origin) at 10 uM using phenacetin as substrate incubated for 10 mins in presence of NADPH by LC-MS/MS analysis relative to control; format: ADME; details: probe phenacetin
# T1 sequence (P05177 whole entry): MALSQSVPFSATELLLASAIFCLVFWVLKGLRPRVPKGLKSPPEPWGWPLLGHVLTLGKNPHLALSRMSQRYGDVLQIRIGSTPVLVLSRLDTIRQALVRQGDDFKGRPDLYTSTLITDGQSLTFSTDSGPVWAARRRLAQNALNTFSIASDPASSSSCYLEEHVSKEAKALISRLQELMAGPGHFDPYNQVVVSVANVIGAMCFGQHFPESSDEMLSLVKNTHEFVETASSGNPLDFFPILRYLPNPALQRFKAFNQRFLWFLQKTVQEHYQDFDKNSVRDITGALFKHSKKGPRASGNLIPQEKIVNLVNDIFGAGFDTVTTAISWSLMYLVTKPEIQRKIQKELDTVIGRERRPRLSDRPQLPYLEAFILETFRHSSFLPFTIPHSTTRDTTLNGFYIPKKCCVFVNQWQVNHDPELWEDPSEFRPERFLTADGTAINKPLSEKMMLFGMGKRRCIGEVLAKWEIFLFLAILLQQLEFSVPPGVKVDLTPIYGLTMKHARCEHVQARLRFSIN
# [8] = target: CYP2D6 (Homo sapiens, UniProt P10635); assay: Inhibition of CYP2D6 (unknown origin) at 10 uM using dextromethorphan as substrate incubated for 10 mins in presence of NADPH by LC-MS/MS analysis relative to control; format: ADME; details: probe dextromethorphan
# [9] = system: Hepatitis B virus; assay: Antiviral activity against HBV infected human HePAD38 cells assessed as reduction of HBV DNA level with compound replacement for every 3 days and measured on day 6 by qPCR analysis; format: functional, organism-based
# [10] = target: T2, hERG (KCNH2) (Homo sapiens, UniProt Q12809); assay: Inhibition of hERG expressed in HEK293 cells at 1 uM at holding potential of -80 mV by whole cell patch clamp assay relative to control; format: toxicity, cell-based; details: HEK293 cells expressing hERG
# [11] = Water solubility of compound in phosphate buffer at pH 7 by HPLC analysis; format: physicochemical
# [12] = Metabolic stability in human liver assessed as intrinsic clearance preincubated for 10 mins followed by NADPH addition and measured after 60 mins by LC-MS/MS analysis; format: ADME, tissue-based; details: time 70 min, read-out: CLH
# [13] = Cytotoxicity against human HePAD38 cells assessed as reduction in cell viability by CCK-8 assay; format: toxicity, cell-based
# [14] = target: T2, hERG (KCNH2); assay: Inhibition of hERG expressed in HEK293 cells at 10 uM at holding potential of -80 mV by whole cell patch clamp assay relative to control; format: toxicity, cell-based; details: HEK293 cells expressing hERG
# [15] = target: CYP2C19 (Homo sapiens, UniProt P33261); assay: Inhibition of CYP2C19 (unknown origin) at 10 uM using s-mephenytoin as substrate incubated for 10 mins in presence of NADPH by LC-MS/MS analysis relative to control; format: ADME; details: probe S-mephenytoin
# [16] = Metabolic stability in human liver microsome assessed as parent compound remaining preincubated for 10 mins followed by NADPH addition and measured after 60 mins by LC-MS/MS analysis; format: ADME; details: liver microsomes, time 70 min, read-out: Stability
# [17] = Water solubility of compound in phosphate buffer at pH 2 by HPLC analysis; format: physicochemical
# [18] = system: Hepatitis B virus; assay: Antiviral activity against HBV infected human HePAD38 cells assessed as reduction in intracellular core protein content upto 10 uM incubated for 6 days; format: functional, organism-based; details: time 6.0 day
# [19] = system: Hepatitis B virus; assay: Antiviral activity against HBV infected human HePAD38 cells assessed as reduction in intracellular capsid content upto 10 uM incubated for 6 days; format: functional, organism-based; details: time 6.0 day
# [20] = Metabolic stability in human liver microsome assessed as intrinsic clearance preincubated for 10 mins followed by NADPH addition and measured after 60 mins by LC-MS/MS analysis; format: ADME; details: liver microsomes, time 70 min, read-out: CLH
# [21] = system: Hepatitis B virus; assay: Antiviral activity against HBV infected human HePAD38 cells assessed as reduction in intracellular capsid content at 1 uM incubated for 6 days; format: functional, organism-based; details: time 6.0 day
# [22] = system: Hepatitis B virus; assay: Antiviral activity against HBV infected human HePAD38 cells assessed as reduction in intracellular core protein content at 0.016 uM incubated for 6 days by Western blot analysis; format: functional, organism-based; details: time 6.0 day
# [23] = system: Hepatitis B virus; assay: Antiviral activity against HBV infected in human HepG2.2.15 cells assessed as reduction in extracellular HBV DNA level incubated for 8 days by Southern blotting; format: functional, organism-based; details: HepG2.2.15, 192 h
# [24] = system: Hepatitis B virus; assay: Antiviral activity against HBV infected human HePAD38 cells assessed as reduction in intracellular core protein content incubated for 6 days by Western blot analysis; format: functional, organism-based; details: dose 1.0 µM, time 6.0 day
# [25] = system: Hepatitis B virus; assay: Antiviral activity against HBV infected human HePAD38 cells assessed as reduction in intracellular core protein content at 0.08 uM incubated for 6 days by Western blot analysis; format: functional, organism-based; details: time 6.0 day
# CYP2C19, sequence (P33261 whole entry): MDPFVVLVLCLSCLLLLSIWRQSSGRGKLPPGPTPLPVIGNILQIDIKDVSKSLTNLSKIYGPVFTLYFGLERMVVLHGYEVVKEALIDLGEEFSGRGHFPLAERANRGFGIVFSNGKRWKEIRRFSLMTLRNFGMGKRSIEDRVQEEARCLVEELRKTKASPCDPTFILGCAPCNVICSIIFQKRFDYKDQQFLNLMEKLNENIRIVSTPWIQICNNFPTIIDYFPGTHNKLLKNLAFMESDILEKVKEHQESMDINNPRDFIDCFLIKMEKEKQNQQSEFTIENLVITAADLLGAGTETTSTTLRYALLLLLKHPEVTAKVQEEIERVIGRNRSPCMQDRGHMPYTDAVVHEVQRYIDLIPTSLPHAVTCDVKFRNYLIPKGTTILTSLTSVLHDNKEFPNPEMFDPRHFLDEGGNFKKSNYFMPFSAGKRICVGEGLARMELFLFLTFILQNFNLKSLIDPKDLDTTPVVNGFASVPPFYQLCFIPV
# CYP2C9, sequence (P11712 whole entry): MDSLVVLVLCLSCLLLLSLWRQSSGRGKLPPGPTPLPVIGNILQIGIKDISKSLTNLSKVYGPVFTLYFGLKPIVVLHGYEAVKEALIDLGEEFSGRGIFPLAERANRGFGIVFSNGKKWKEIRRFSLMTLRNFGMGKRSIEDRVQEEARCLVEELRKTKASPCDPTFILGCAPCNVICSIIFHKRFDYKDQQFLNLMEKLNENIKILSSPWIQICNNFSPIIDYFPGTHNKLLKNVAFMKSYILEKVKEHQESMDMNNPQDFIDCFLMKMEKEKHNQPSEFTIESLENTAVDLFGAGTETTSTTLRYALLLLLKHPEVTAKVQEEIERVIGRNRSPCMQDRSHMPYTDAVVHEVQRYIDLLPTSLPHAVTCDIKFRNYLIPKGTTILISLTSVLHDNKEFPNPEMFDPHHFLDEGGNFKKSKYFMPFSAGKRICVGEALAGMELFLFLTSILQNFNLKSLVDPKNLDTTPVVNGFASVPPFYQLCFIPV
# CYP2D6, sequence (P10635 whole entry): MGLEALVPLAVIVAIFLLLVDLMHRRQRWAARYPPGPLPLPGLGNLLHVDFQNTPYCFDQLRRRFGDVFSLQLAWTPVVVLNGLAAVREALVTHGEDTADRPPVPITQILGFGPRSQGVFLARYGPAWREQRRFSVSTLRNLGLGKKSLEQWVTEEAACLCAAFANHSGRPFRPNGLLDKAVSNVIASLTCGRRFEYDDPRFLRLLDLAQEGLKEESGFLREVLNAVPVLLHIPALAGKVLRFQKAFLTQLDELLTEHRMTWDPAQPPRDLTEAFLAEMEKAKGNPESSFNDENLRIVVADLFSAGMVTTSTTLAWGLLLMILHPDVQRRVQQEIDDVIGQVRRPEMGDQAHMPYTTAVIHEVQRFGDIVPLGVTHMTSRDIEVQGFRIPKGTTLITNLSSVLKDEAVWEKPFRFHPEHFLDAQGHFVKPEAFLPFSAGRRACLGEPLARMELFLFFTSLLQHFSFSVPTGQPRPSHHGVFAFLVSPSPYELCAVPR
# T2 sequence (Q12809 whole entry): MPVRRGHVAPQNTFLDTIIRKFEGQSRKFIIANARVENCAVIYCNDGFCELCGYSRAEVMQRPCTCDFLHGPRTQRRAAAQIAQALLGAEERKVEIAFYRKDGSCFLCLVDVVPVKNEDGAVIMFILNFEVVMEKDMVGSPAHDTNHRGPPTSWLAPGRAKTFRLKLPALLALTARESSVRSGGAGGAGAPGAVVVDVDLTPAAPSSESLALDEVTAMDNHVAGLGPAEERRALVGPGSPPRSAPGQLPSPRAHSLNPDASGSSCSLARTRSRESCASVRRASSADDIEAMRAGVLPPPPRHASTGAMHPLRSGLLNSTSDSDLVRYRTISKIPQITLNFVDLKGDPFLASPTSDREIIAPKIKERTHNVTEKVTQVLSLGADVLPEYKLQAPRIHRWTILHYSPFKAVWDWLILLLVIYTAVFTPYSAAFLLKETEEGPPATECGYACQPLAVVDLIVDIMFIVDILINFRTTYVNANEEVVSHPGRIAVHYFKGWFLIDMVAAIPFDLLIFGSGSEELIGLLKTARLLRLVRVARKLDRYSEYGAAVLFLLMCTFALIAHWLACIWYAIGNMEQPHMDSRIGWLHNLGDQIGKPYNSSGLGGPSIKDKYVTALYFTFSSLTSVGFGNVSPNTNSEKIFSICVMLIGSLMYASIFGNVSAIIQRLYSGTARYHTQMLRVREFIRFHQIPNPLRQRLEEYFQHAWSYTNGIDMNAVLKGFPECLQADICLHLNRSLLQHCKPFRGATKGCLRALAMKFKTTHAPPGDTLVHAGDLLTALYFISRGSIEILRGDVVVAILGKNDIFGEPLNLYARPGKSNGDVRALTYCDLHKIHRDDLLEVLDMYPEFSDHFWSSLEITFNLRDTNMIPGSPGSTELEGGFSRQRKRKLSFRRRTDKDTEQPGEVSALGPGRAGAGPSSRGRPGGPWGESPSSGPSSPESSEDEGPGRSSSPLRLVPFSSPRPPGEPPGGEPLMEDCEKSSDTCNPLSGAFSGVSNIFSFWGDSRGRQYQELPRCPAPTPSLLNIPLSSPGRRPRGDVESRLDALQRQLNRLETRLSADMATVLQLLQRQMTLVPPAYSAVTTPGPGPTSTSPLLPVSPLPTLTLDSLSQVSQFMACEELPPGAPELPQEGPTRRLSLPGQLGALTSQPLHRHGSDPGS
structure (smiles),measurement,setting,value
CCOC(=O)C1=C(CN2CCN(C(/C=C/c3ccccc3)C(=O)O)CC2)NC(c2nccs2)=NC1c1ccc(F)cc1Br (centres undefined),Activity,[1],Active
same,solubility,[2],< 0.58 µg/mL
same,half-life,[3],93.7 min
same,"inhibition at 10 min, 10 µM",[4],44.6%
same,"inhibition at 10 min, 10 µM",[5],26.2%
same,selectivity ratio,[6],1060
same,"inhibition at 10 min, 10 µM",[7],0%
same,"inhibition at 10 min, 10 µM",[8],12.4%
same,EC50,[9],21 nM
same,inhibition at 1 µM,[10],11.7%
same,solubility,[11],1.96 µg/mL
same,CLint scaled,[12],13.3 mL/min/kg
same,CC50,[13],22.4 µM
same,inhibition at 10 µM,[14],93.4%
same,"inhibition at 10 min, 10 µM",[15],18.1%
same,remaining at 1 h,[16],64.6%
same,solubility,[17],361 µg/mL
same,Activity,[18],Active
same,Activity,[19],Active
same,microsomal CLint,[20],14.8 µL/min/mg
Nc1ccn([C@@H]2CS[C@H](CO)O2)c(=O)n1 [LAMIVUDINE],Activity,[21],inactive
same,EC50,[9],90 nM
same,CC50,[13],> 50 µM
CC[C@@]1(c2ccccc2)NC(=O)N(Cc2ccccc2)C1=O,"inhibition at 10 min, 10 µM",[15],89.4%
O=c1cc(-c2ccccc2)oc2c1ccc1ccccc12 [ALPHA-NAPHTHOFLAVONE],"inhibition at 10 min, 10 µM",[7],88.7%
Nc1ccc(S(=O)(=O)Nc2ccnn2-c2ccccc2)cc1 [SULFAPHENAZOLE],"inhibition at 10 min, 10 µM",[5],87.1%
CCOC(=O)C1=C(CN2CCN(C(C(=O)O)c3cccc([N+](=O)[O-])c3)CC2)NC(c2nccs2)=NC1c1ccc(F)cc1Br (centres undefined),solubility,[2],25.5 µg/mL
same,half-life,[3],108 min
same,"inhibition at 10 min, 10 µM",[4],17.1%
same,"inhibition at 10 min, 10 µM",[5],31.6%
same,selectivity ratio,[6],1220
same,"inhibition at 10 min, 10 µM",[7],8.9%
same,"inhibition at 10 min, 10 µM",[8],34%
same,EC50,[9],20 nM
same,inhibition at 1 µM,[10],15.7%
same,solubility,[11],6.85 µg/mL
same,CLint scaled,[12],11.5 mL/min/kg
same,CC50,[13],29.2 µM
same,inhibition at 10 µM,[14],72.7%
same,"inhibition at 10 min, 10 µM",[15],15.3%
same,remaining at 1 h,[16],68%
same,solubility,[17],375 µg/mL
same,Activity,[18],Active
same,Activity,[19],Active
same,Activity,[22],Active
same,microsomal CLint,[20],12.8 µL/min/mg
C[C@]12CC[C@H]3[C@@H](CCC4=CC(=O)CC[C@@]43C)[C@@H]1CC[C@@H]2O [TESTOSTERONE],half-life,[3],10.7 min
same,CLint scaled,[12],117 mL/min/kg
same,microsomal CLint,[20],130 µL/min/mg
CCOC(=O)C1=C(CN2CCOCC2)NC(c2nccs2)=NC1c1ccc(F)cc1Br (centres undefined),solubility,[2],< 1.19 µg/mL
same,half-life,[3],2.1 min
same,EC50,[23],12 nM
same,EC50,[9],7 nM
same,solubility,[11],< 1.19 µg/mL
same,CLint scaled,[12],596 mL/min/kg
same,Activity,[24],Dose-Dependent Effect
same,remaining at 1 h,[16],0.1%
same,solubility,[17],215 µg/mL
same,Activity,[25],Active
same,microsomal CLint,[20],663 µL/min/mg
O=C(O)Cc1ccccc1Nc1c(Cl)cccc1Cl [DICLOFENAC],CLint scaled,[12],212 mL/min/kg
same,microsomal CLint,[20],235 µL/min/mg
CCOC(=O)C1=C(CN2CCN(C(C(=O)O)c3cccc(C#N)c3)CC2)NC(c2nccs2)=NC1c1ccc(F)cc1Br (centres undefined),selectivity ratio,[6],< 2.2
same,EC50,[9],> 10000 nM
same,CC50,[13],22.4 µM
CCOC(=O)C1=C(CN2CCN(C(C(=O)O)c3ccc4c(c3)OCO4)CC2)NC(c2nccs2)=NC1c1ccc(F)cc1Br (centres undefined),selectivity ratio,[6],9.1
same,EC50,[9],2460 nM
same,CC50,[13],22.4 µM
C=C[C@H]1C[N@@]2CC[C@H]1C[C@@H]2[C@@H](O)c1ccnc2ccc(OC)cc12 [QUINIDINE],"inhibition at 10 min, 10 µM",[8],95.6%
CCOC(=O)C1=C(CN2CCN(C(C(=O)O)c3ccc4occc4c3)CC2)NC(c2nccs2)=NC1c1ccc(F)cc1Br (centres undefined),selectivity ratio,[6],9.8
same,EC50,[9],2280 nM
same,CC50,[13],22.4 µM
CCOC(=O)C1=C(CN2CCN(C(C(=O)O)c3cccc(C=O)c3)CC2)NC(c2nccs2)=NC1c1ccc(F)cc1Br (centres undefined),selectivity ratio,[6],2440
same,EC50,[9],> 10000 nM
same,CC50,[13],> 50 µM
CCOC(=O)C1=C(CN2CCN(C(C(=O)O)c3cccc(C(F)(F)F)c3)CC2)NC(c2nccs2)=NC1c1ccc(F)cc1Br (centres undefined),selectivity ratio,[6],2.2
same,EC50,[9],9980 nM
same,CC50,[13],22.4 µM
COc1cc(N)c(Cl)cc1C(=O)NC1CCN(CCCOc2ccc(F)cc2)CC1OC (centres undefined) [CISAPRIDE],inhibition at 1 µM,[10],96.7%
CCOC(=O)C1=C(CN2CCN(C(C(=O)O)c3ccc(Cl)cc3)CC2)NC(c2nccs2)=NC1c1ccc(F)cc1Br (centres undefined),selectivity ratio,[6],57.3
same,EC50,[9],390 nM
same,CC50,[13],22.4 µM
CCOC(=O)C1=C(CN2CCN(C(C(=O)O)c3cccc(F)c3)CC2)NC(c2nccs2)=NC1c1ccc(F)cc1Br (centres undefined),selectivity ratio,[6],< 2.2
same,EC50,[9],> 10000 nM
same,CC50,[13],22.4 µM
CCOC(=O)C1=C(CN2CCN(C(C(=O)O)c3ccc(C#N)cc3)CC2)NC(c2nccs2)=NC1c1ccc(F)cc1Br (centres undefined),selectivity ratio,[6],6.8
same,EC50,[9],4310 nM
same,CC50,[13],29.2 µM
CCOC(=O)C1=C(CN2CCN(C(C(=O)O)c3ccccc3O)CC2)NC(c2nccs2)=NC1c1ccc(F)cc1Br (centres undefined),selectivity ratio,[6],3.4
same,EC50,[9],6480 nM
same,CC50,[13],22.4 µM
CCOC(=O)C1=C(CN2CCN(C(C(=O)O)c3ccc4c(c3)OCCO4)CC2)NC(c2nccs2)=NC1c1ccc(F)cc1Br (centres undefined),selectivity ratio,[6],508
same,EC50,[9],44 nM
same,CC50,[13],22.4 µM
